Several values for one entry are separate records, joined by “and”; a condition that tells them apart may be missing. Equal entries are not always repeated. Where two headings read alike, the source gives them in different places.
Tests used:
HL-60 cells = experiment: MTT cell growth inhibition, HL-60; format: cell-based; settings: Homo sapiens, HL-60, 72 hours
Description: FIG. 2. Effect of Orsaponin (OSW-1) on cell growth in two human cancer cell lines including a leukemia and a lymphoma cell line. HL-60 (leukemia) and Raji cells (lymphoma) in exponentially growing phase were treated with the indicated concentrations of OSW-1 for 72 hours. Cell growth inhibition was measured by MTT assay.
Cells and Cell Lines. Various cancer cell lines were used including the human leukemia cell lines HL-60 and ML-1 cells; human lymphoma cell line Raji; human pancreatic cancer cells AsPC-1; and human ovarian cancer cells SKOV3; human colon cancer cells HCT116; as well as isolated CLL cells from patients; and lymphocytes from normal donors. Cells were grown and maintained as per protocols known in the art using appropriate cell culture media and supplements.
(§1) 1. MTT Assays. For these assays either cancer cell lines were used. Alternatively, mononuclear cells from peripheral blood samples of CLL patients or normal donors were separated by Ficoll Hipaque fractionation and resuspended in DMEM complete medium. […] After the indicated number of days (usually 3 days or 72 hours) of exposure to OSW-1, cell survival was assessed by the addition of the MTT dye to the wells. […] Survival of cells under orsaponin treatment was evaluated as a percentage of control cell growth. […]

[1] = 5-day intravenous toxicity study in mice; format: in vivo, ICR mice; settings: for Early Deaths: 15 dosed; for NOAEL at 5 days: ICR
Description: To assess the toxicity of orsaponin of the present invention, a 5-day intravenous study with Orsaponin in mice was conducted. […] Five mice from each group were scheduled to be sacrificed 3, 14, and 42 days after the last dose was administered.
Tissues (liver with gall bladder, kidneys, heart with aorta, lungs, spleen, skeletal muscle, brain, pituitary gland, eyes, pancreas, stomach, duodenum, jejunum, ileum, cecum, colon, mesenteric lymph node, salivary gland, mandibular lymph node, thymus, adrenal glands, larynx/pharynx/tongue, thyroid gland, parathyroid, trachea, esophagus, skin, mammary gland (females only), prostate, seminal vesicles, urinary bladder, testes, epididymides, ovary, uterus, cervix, femur/knee joint, sternum, bone marrow, and gross lesions) were processed for microscopic evaluation.
Individual animal organ weight was also measured. Calculation of percent of control using the relative weight of the individual organs per 100 grams of the terminal body weight (TBW) is included below in Tables 8 and 9. A change of greater than 20% difference was considered toxicologically important, and/or a clear dose response relationship.

[2] = test system: pancreatic cancer AsPC-1 cells; experiment: MTT cell growth inhibition, AsPC-1; format: cell-based, human; settings: AsPC-1, 72 h or 96 h
Description: FIG. 3. Effect of Orsaponin (OSW-1) on cell growth in human pancreatic cancer cells. Human pancreatic cancer AsPC-1 cells were treated with the indicated concentrations of OSW-1 for 72 h or 96 h. Cell growth inhibition was measured by MTT assay.
FIG. 4. The anticancer activity of Orsaponin (OSW-1) is not affected by NFκB expression in pancreatic cancer cells. Human pancreatic cancer cells AsPC-1 with constitutive activation of NFκB or inactivation of NFκB by dominant negative IκBα (AsPC-1/IκBα-ND) were treated with the indicated concentrations of OSW-1 for 72 h. Cell growth inhibition was measured by MTT assay.
Cells and Cell Lines. Various cancer cell lines were used including the human leukemia cell lines HL-60 and ML-1 cells; human lymphoma cell line Raji; human pancreatic cancer cells AsPC-1; and human ovarian cancer cells SKOV3; human colon cancer cells HCT116; as well as isolated CLL cells from patients; and lymphocytes from normal donors. […]
1. […] After the indicated number of days (usually 3 days or 72 hours) of exposure to OSW-1, cell survival was assessed by the addition of the MTT dye to the wells. […] Survival of cells under orsaponin treatment was evaluated as a percentage of control cell growth. […]
The effect of Orsaponin and 17-deoxyorsaponin in pancreatic cancer cells was also assessed. […] Cell growth inhibition was measured by MTT assay.

[3] = test system: ovarian cancer SKOV3 cells; experiment: MTT cell growth inhibition, SKOV3; format: cell-based; settings: Homo sapiens, SK-OV-3, SKOV3, 72 h
Description: FIG. 5. Effect of Orsaponin (OSW-1) on cell growth in human ovarian cancer cells (SKOV3). Human ovarian cancer SKOV3 cells were treated with the indicated concentrations of OSW-1 for 72 h. Cell growth inhibition was measured by the MTT assay. The IC50 value is approximately 0.2 nM under the experimental conditions.
as §1
OSW-1 Inhibits Growth of Ovarian Cancer Cells. […] Human ovarian cancer SKOV3 cells were treated with 0-10 nM OSW-1 for 72 h and cell growth inhibition was measured by the MTT assay.
The effect of 17-deoxyorsaponin in human ovarian cancer cells was determined. […] Cell growth inhibition was measured by MTT assay (FIG. 17). […] ML-1 leukemia cells were incubated with various concentrations of 17-deoxyorsaponin for 72 h and cell growth inhibition was measured using the MTT assay (FIG. 18).

[4] = test system: normal human astrocytes (immortalized with hTER); experiment: MTT cell growth inhibition, normal astrocytes; format: cell-based; settings: Astrocyte, 72 h
Description: 1. MTT Assays. For these assays either cancer cell lines were used. Alternatively, mononuclear cells from peripheral blood samples of CLL patients or normal donors were separated by Ficoll Hipaque fractionation and resuspended in DMEM complete medium. Malignant cells from various human cell lines (usually at 5×10^4 cells/ml) or mononuclear cells from peripheral blood of leukemia patients and healthy donors (1×10^6 cells/ml) were incubated in either αMEM or RPMI 1640 with or without various concentrations of OSW-1 in the range of 0-10 nM. Each experimental condition was done in triplicate. After the indicated number of days (usually 3 days or 72 hours) of exposure to OSW-1, cell survival was assessed by the addition of the MTT dye to the wells. The MTT dye changes its color depending on the presence of live cells in the well. Survival of cells under orsaponin treatment was evaluated as a percentage of control cell growth. Alternatively, one can also use the dye trypan-blue which penetrates dead cells thereby allowing one to count live cells under the microscope and estimating percentage survival.
To test the therapeutic selectivity of Orsaponin and 17-deoxyorsaponin, their effect on human brain tumor cells (U87 malignant glioma) and normal human astrocytes were compared. […] Cell growth inhibition was measured by MTT assay (FIG. 21).

[5] = test system: normal human pulmonary cells; settings: Mimaki et al., 1997; read-out: IC50, toxicity to normal human pulmonary cells; cited from earlier work
[6] = male mice, early deaths day 4, individual animals, listed as Orsaponin

COc1ccc(C(=O)OC2C(OC3C(O)COC(O[C@H]4C[C@H]5[C@@H]6CC=C7C[C@@H](O)CC[C@]7(C)[C@H]6CC[C@]5(C)[C@@]4(O)[C@H](C)C(=O)CCC(C)C)C3OC(C)=O)OCC(O)C2O)cc1 (stereo partly drawn) [OSW-1, 3β, 16β, 17 α-trihydroxycholost-5-en-22-one 16-O-(2-O-4-methoxybenzoyl-β-D-xylopyranosyl)-(1->3)-(2-O-acetyl-α-L-arabinopyranoside)]
IC50 (HL-60 cells): < 0.5 nM
Early Deaths ([1]; Females, 10 μg/kg/day): 0
Early Deaths ([1]; Females, 20 μg/kg/day): 0
Early Deaths ([1]; Females, 30 μg/kg/day): 0
Early Deaths ([1]; Females, 40 μg/kg/day): 0
Spleen Relative Weight ([1]; Females, 14-Day, 20 μg/kg/day): 109% of Control
Liver Relative Weight ([1]; Females, 14-Day, 40 μg/kg/day): 105% of Control
Kidney Relative Weight ([1]; Females, 42-Day, 20 μg/kg/day): 116% of Control
Kidney Relative Weight ([1]; Females, 42-Day, 40 μg/kg/day): 105% of Control
Early Deaths ([1]; Males, 10 μg/kg/day): 0
Early Deaths ([1]; Males, 20 μg/kg/day): 7
Early Deaths ([1]; Males, 40 μg/kg/day): 15
Kidney Relative Weight ([1]; Males, 3-Day, 10 μg/kg/day): 103% of Control
Kidney Relative Weight ([1]; Males, 3-Day, 20 μg/kg/day): 116% of Control
TBW ([1]; Males, 14-Day, 10 μg/kg/day): 107% of Control
mortality or morbidity ([1]; female mice, 10, 20 or 40 μg/kg/day i.v.): no mortality or morbidity was observed
NOAEL at 5 days ([1]; female, mouse, in vivo, females, read-out: no-observed-adverse-effect level (NOAEL)): 0.04 mg/kg/day
no-observed-effect level (NOEL) ([1]; females): 40 µg/kg/day
NOEL ([1]; male mice): No NOEL
mortality and morbidity ([1]; male mice, 20 and 40 μg/kg/day, after the fourth injection): mortality and morbidity was observed
Hemolysis Sl, Md, Mk ([1]; male mice, early deaths day 4, individual animals (IDs 30xx, 40xx), 30 and 40 μg/kg/day groups, listed as Orsaponin): Md (6×) and Mk and Sl
ALK PHOS [1, 6]: 1896 IU/L and 1746 IU/L and 2290 IU/L and 3302 IU/L and >4500 IU/L and >1500 IU/L (2×) and 2001 IU/L and >2842 IU/L and 3339 IU/L and 4992 IU/L and 4326 IU/L
ALT [1, 6]: 1058 IU/L and 486 IU/L and >8800 IU/L (2×) and >4400 IU/L (2×) and 2060 IU/L and >6600 IU/L (2×) and 5642 IU/L and 4950 IU/L and 5596 IU/L
AST [1, 6]: 1794 IU/L and 1167 IU/L and >8800 IU/L (3×) and 3306 IU/L and >6600 IU/L (2×) and 4341 IU/L and >4400 IU/L and 5106 IU/L and 5864 IU/L
Alb [1, 6]: 4.2 gm/dl and 3 gm/dl and 3.4 gm/dl and 2.4 gm/dl (2×) and 3.8 gm/dl (2×) and 3.3 gm/dl and 3.9 gm/dl and 2.8 gm/dl and 2.7 gm/dl
CHLORIDE [1, 6]: 103 mmol/L and 110 mmol/L (3×) and 116 mmol/L and 105 mmol/L and 109 mmol/L and 107 mmol/L
Glob [1, 6]: 2.3 gm/dl and 1.8 gm/dl (2×) and 6.6 gm/dl and 1.4 gm/dl (2×) and 1.6 gm/dl and 1.5 gm/dl and 2.1 gm/dl and 1.2 gm/dl and 1 gm/dl
T. PROTEIN [1, 6]: 6.5 gm/dl and 4.8 gm/dl (2×) and 10 gm/dl and 3.8 gm/dl and 5.4 gm/dl and 5.6 gm/dl and 6 gm/dl (2×) and 4 gm/dl and 4.1 gm/dl and 3.4 gm/dl
NOAEL at 5 days ([1]; male, mouse, in vivo, males, 5 daily doses, based on pathology, read-out: NOAEL): 0.01 mg/kg/day
compound-related findings ([1]; mouse, in vivo): No Orsaponin-related findings were observed
interpretation of AST, ALT and total bilirubin ([1]; mouse, in vivo): severe liver disease
reversibility of hepatocellular lesion ([1]; mouse, in vivo): completely reversible
concentrations at which highly potent [2]: 0.1 to 5 nM
IC50 [3]: ~0.2 nM
IC50 [4]: ~1 nM
IC50 [5]: 1500 nM
